One data set deals with pfDHODH (Plasmodium falciparum (isolate 3D7), UniProt Q08210). The data set is described as follows: DHODH chromogen reduction (DCIP) assay, pfDHODH. In kind it is biochemical, P. falciparum. Conditions: read-out: pfDHODH IC50.
For a further data set, the target named is hsDHODH (Homo sapiens (Human), UniProt Q02127). The experiment in a line: DCIP assay, hsDHODH. To be noted: Table 3; DCIP assay, 20 nM hsDHODH; read-out: hsDHODH IC50. In kind it is biochemical. From the text: Type 2 DHODH activity was monitored with either the direct assay measuring the formation of orotate or via a chromogen reduction assay using DCIP. Although the extinction coefficient and absorption wavelength are preferable for the chromogen reduction assay, the inorganic electron acceptor DCIP can be utilized by DHODH as the final electron acceptor in lieu of CoQn when the endogenous substrate is at a low concentration. As such, the direct assay was used to measure the binding affinity of pfDHODH to CoQD and L-DHO. The enzymatic reaction was performed by varying the L-DHO concentration (1-400 μM) or CoQD concentration (1-200 μM) while keeping the other substrate constant and in excess. The formation of orotate was measured continuously at 296 nm (ε296=4.3 mM^−1 cm^−1). Inhibition of DHODH by small molecules was evaluated using the chromogen based assay with a final substrate concentration of 200 μM L-DHO, 18 μM CoQD, and 100 μM DCIP, unless otherwise noted. The reduction of DCIP was monitored at 600 nm (ε600=18.8 mM^−1 cm^−1).
hsDHODH, sequence (Q02127 29-395 limits assumed): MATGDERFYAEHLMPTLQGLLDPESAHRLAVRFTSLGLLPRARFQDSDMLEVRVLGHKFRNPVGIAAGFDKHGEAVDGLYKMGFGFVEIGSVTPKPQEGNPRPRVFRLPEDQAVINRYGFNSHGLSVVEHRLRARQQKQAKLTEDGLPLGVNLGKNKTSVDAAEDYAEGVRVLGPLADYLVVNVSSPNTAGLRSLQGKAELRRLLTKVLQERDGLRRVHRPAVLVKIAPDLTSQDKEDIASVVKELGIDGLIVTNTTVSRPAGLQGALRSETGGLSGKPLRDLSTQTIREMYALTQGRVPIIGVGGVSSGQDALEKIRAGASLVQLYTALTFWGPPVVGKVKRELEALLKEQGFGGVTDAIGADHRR
Substrate specificity and enzyme inhibition data was analyzed with GraphPad Prism Version 4 for Windows (GraphPad Software). Kinetic constants were calculated by non-linear regression fitting of the data to the Michaelis-Menten equation [36]. IC50 values were determined by non-linear regression fitting of the data to Equation 1: […]

In the next data set the test system is P. falciparum 3D7. The experiment in a line: Inhibition of in vitro P. falciparum culture, [3H]-hypoxanthine uptake, 3D7. The format is cell-based. To be noted: Plasmodium falciparum; for EC50: 3D7, Table 2b, read-out: 3D7 EC50; for IC50: 3D7, Table 3, [3H]-hypoxanthine uptake, read-out: 3D7 IC50. In outline: (§1)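 Parasite growth inhibition measured as relative reduction of [3H]-hypoxanthine uptake in in vitro cultures. Values from non-linear regression fit, using relative growth velocity in place of product-formation rate.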

The test system of a further data set is P. falciparum Dd2. The data set is described as follows: Inhibition of in vitro P. falciparum culture, [3H]-hypoxanthine uptake, Dd2. In kind it is cell-based. Conditions: Plasmodium falciparum; for EC50: DD2, Table 2b, read-out: Dd2 EC50; for IC50: DD2, Table 3, [3H]-hypoxanthine uptake, read-out: Dd2 IC50. In outline:
as §1

The next data set in a line: Solubility measurement. The format is physicochemical. Conditions: aqueous buffer, thermodynamic from solid; read-out: Solubility. From the text:
Many standard techniques are known in the art to establish the solubility of a compound in a particular solvent. The following description is one such technique that could be used to determine the solubility: Equilibrium solubility measurements start with the solid form of the compound (crystalline form preferred). The powder is physically mixed with an aqueous buffer (defined pH) until equilibrium is reached. Either centrifugation or filtration can be used to separate the solution from the remaining solid. The amount dissolved in the solution can be determined by any one of many known methods including HPLC or UV/Vis spectroscopic techniques.

Another data set in a line: Permeability. In kind it is in vitro ADME. Conditions: Caco-2. How it is done: Permeability assays using the Caco-2 colon carcinoma cell line are being used throughout the pharmaceutical industry to estimate the ability of potential drug compounds to cross the intestinal epithelium. Caco-2 cell permeability studies are performed using Caco-2 cell monolayers grown on microporous membranes in multiwell insert systems. With the inserts suspended in the wells of multiwell plates, test compounds can be added to either the upper (apical) or lower (basolateral) chamber to measure permeability in the absorptive (apical to basolateral) or secretive (basolateral to apical) directions. Samples are then taken from the opposite chamber at various time intervals to measure the amount of test compound that has crossed the cell monolayer. A representative method to generate permeability data similar to that in Table 3 can be found in Alsenz, J; Haenel, E. “Development of a 7-Day, 96-Well Caco-2 Permeability Assay with High-Throughput Direct UV Compound Analysis.” Pharmaceutical Research 2003 20(12): p 1961-1969.
Parallel artificial membrane permeability assay (PAMPA) utilizes a simple phospholipid-coated filter disc to measure membrane permeability. It was developed as an alternative to the low throughput. Caco-2 cell permeability assay used to correlate passive permeability with in vivo oral absorption. A representative publication disclosing this method is Kerns, E H; Di, L; Petusky, S; Farris, M; Ley, R; Jupp, P. “Combined application of parallel artificial membrane permeability assay and Caco-2 permeability assays in drug discovery.” J. Pharma Sci. 2004, 93 (6), pages 1440-53.
Cell culture methods (e.g. Caco-2, HT-29 and MDC) and physicochemical methods such as PAMPA and immobilized artificial membrane (IAM) columns are known in the art and can be used to obtain data such as that in Table 3. Hidalgo, I J; “Assessing the absorption of new pharmaceuticals.” Curr Top Med. Chem. 2001 November; 1(5): p 385-401.
Background: Caco-2 cells form a polarised layer with tight junctions and transporters.

Another data set is described as follows: Log D measurement. The format is physicochemical. Conditions: octanol/water; read-out: LogD. From the text: Many standard techniques are known in the art to establish the distribution coefficient of a compound between two particular solvents. The following description is one such technique that could be used to determine the distribution coefficient: The shake-flask method, which consists of dissolving some of the compound in a volume of octanol and water, then physically shaking the mixture and allowing the two solvents to fully separate. The concentration of the compound in each solvent is then measured. The most common method of measuring the distribution of the solute is by HPLC or UV/Vis spectroscopic techniques.

The target of a further data set is Cytochrome P450 1A2 (Homo sapiens (Human), UniProt P05177). The format is in vitro ADME. From the text: (§2) Rapid screening for cytochrome P450 inhibitors is part of the current paradigm for avoiding development of drugs likely to give clinical pharmacokinetic drug-drug interactions and associated toxicities. There are commercially available assays for such screenings. For example, BD Biosciences (http://www.bdbiosciences.com/index.shtml) provides a technical bulletin describing a detailed, step-by-step procedure for the performance of the high throughput cytochrome P450 inhibition testing method.
Cytochrome P450 1A2, sequence (P05177 whole entry): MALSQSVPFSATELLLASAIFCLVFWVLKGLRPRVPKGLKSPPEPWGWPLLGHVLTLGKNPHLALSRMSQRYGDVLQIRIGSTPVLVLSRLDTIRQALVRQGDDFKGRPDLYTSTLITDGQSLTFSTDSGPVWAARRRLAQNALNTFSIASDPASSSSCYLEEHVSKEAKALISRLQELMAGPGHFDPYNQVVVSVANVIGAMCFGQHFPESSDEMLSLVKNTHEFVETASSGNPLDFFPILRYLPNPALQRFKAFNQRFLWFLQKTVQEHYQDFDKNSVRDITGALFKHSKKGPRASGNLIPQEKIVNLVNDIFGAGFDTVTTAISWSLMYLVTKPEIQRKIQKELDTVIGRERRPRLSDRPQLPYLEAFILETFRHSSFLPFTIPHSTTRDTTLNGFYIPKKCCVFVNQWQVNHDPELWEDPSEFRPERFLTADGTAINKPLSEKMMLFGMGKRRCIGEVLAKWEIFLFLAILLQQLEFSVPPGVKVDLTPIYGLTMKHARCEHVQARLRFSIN

Another data set has as its target Cytochrome P450 2C19 (Homo sapiens (Human), UniProt P33261). The data set is described as follows: Cytochrome P450 inhibition, 2C19. In kind it is in vitro ADME.
Description: as §2

The target in the next data set is Cytochrome P450 2C9 (Homo sapiens (Human), UniProt P11712). The experiment in a line: Cytochrome P450 inhibition, 2C9. In kind it is in vitro ADME.
Cytochrome P450 2C9, sequence (P11712 whole entry): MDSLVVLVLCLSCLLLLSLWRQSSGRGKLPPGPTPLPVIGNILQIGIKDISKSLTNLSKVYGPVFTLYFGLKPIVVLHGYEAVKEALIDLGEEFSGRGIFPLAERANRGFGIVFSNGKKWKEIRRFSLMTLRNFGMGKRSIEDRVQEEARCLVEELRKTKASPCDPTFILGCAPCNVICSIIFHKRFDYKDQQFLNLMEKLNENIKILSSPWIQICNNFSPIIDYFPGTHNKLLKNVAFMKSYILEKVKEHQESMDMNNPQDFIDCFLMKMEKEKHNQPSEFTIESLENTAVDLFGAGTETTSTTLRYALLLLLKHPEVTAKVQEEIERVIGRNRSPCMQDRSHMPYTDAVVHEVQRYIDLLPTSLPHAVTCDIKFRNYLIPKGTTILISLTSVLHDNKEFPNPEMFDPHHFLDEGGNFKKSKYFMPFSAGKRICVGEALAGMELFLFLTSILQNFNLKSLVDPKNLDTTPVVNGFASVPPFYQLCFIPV
Description: as §2

Another data set has as its target Cytochrome P450 2D6 (Homo sapiens (Human), UniProt P10635). The data set is described as follows: Cytochrome P450 inhibition, 2D6. The format is in vitro ADME.
Description: as §2

In another data set the target is Cytochrome P450 3A4 (Homo sapiens (Human), UniProt P08684). The data set is described as follows: Cytochrome P450 inhibition, 3A4. In kind it is in vitro ADME.
Cytochrome P450 3A4, sequence (P08684 whole entry): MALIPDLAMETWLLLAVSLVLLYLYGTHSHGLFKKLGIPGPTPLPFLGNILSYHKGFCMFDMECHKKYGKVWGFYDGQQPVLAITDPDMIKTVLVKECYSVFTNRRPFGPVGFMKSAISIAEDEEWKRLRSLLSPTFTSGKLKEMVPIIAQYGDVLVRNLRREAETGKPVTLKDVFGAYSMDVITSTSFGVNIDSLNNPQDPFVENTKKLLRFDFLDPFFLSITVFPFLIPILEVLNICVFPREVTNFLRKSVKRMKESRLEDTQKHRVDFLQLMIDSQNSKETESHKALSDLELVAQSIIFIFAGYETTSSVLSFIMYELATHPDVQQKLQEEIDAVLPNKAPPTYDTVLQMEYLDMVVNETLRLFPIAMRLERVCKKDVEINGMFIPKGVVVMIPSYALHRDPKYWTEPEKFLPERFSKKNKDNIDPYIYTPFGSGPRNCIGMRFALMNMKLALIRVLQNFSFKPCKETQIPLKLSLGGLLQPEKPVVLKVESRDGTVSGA
Description: as §2

Another data set can be described thus: Hepatic clearance, human. The format is in vitro ADME. From the text:
(§3) Clearance of drug by the liver will depend on the rate of delivery of drug to the liver (the hepatic blood flow) and on the efficiency of removal of drug which is presented to it (the extraction ratio). The hepatic clearance of compounds can be determined by standard methods known in the art. Such methods are described in, for example, Naritomi, Y; Terashita, S; Kagayama, A; Sugiyama, Y. “Utility of Hepatocytes in Predicting Drug Metabolism: Comparison of Hepatic Intrinsic Clearance in Rats and Humans in Vivo and in Vitro.” 2003, 31 (5): pages 580-588.

Another data set can be described thus: Hepatic clearance, rat. In kind it is in vitro ADME.
Description: as §3

Where [1] appears, read: Table 3, DCIP assay, 20 nM pfDHODH.

The values that follow come from US8703811B2, “Small molecule inhibitors of Plasmodium falciparum dihydroorotate dehydrogenase” (Genzyme Corporation, priority 2008, dated 2014).

Values after ≈ are worked out from the molar mass of the structure shown. Read-outs that look alike come from different tables or passages of the source.

pfDHODH, sequence (Q08210 159-565 limits assumed): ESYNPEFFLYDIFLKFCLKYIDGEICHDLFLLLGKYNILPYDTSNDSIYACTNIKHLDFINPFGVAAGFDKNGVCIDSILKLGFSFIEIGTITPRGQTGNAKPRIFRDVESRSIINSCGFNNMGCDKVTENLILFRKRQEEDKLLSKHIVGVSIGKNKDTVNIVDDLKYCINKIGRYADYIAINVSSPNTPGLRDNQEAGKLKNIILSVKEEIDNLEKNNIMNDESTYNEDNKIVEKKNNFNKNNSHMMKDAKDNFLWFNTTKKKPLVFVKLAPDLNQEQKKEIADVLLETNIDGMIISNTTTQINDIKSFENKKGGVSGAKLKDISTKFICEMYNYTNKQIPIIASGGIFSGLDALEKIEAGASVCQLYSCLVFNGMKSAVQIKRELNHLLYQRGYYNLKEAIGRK
Cytochrome P450 2C19, sequence (P33261 whole entry): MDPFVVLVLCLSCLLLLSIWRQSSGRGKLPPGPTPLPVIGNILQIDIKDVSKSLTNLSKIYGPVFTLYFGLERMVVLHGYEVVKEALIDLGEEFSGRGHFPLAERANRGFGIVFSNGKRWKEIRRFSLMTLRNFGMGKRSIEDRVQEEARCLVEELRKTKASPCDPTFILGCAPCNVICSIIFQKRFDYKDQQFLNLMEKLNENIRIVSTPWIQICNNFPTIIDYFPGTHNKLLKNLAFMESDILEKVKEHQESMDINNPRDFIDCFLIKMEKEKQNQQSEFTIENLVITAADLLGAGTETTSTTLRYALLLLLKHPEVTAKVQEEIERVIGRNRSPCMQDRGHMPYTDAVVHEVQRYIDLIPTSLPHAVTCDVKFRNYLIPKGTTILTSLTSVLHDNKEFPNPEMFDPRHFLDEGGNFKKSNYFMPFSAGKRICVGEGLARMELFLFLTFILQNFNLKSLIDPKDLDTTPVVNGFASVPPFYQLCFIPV
Cytochrome P450 2D6, sequence (P10635 whole entry): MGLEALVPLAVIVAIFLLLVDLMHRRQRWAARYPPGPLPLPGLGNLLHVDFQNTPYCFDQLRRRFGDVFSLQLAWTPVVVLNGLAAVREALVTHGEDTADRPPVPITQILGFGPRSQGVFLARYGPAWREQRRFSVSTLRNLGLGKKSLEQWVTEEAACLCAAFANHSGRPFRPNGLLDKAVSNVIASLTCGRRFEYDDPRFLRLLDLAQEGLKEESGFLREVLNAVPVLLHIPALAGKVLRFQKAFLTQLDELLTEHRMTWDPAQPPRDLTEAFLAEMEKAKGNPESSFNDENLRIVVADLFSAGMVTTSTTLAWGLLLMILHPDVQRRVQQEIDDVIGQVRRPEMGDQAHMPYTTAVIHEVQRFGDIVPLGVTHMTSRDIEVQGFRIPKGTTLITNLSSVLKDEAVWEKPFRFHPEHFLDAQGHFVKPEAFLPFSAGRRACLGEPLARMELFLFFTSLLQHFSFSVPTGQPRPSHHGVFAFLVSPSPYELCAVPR

Broadly, the IC50 is the concentration at which inhibition is half-maximal. What is called EC50 is the midpoint of the concentration-response curve. By solubility is commonly meant how much of the substance goes into solution per volume. For orientation: Papp means a coefficient for how fast a substance crosses the barrier. One may read the logD as the decadic logarithm of the distribution of all forms, ionised or not, between an organic phase and buffer at a given pH. The microsomal CLint is a measure of how fast metabolising enzymes remove a compound, apart from limits set by blood flow. In the case of `CCCNC(=O)c1ccc(N2CCCCC2)s1` [Compound 8, 5-(piperidin-1-yl)-N-propylthiophene-2-carboxamide], the half-inhibitory concentration (IC50) at pfDHODH (Table 2b) is 230 µM; on pfDHODH (setting [1]), more than 30 µM; on hsDHODH, more than 30 µM; with P. falciparum 3D7 it was more than 10 µM; in the data set on P. falciparum Dd2 it was more than 10 µM. Moreover, the concentration for a half-maximal effect (EC50) in the data set on P. falciparum 3D7 and in the data set on P. falciparum Dd2 was more than 10 µM in each case. Moreover, the solubility in “Solubility measurement” is more than 30 µg/mL. In the data set “Permeability”, this compound registered a Papp of 43 ×10⁻⁶ cm/s. In addition, in “Log D measurement”, the logD stood at 3.2. Besides, the “Cytochrome P450 Inhibition, 1A2” value on Cytochrome P450 1A2 was more than 5.0 in 1A2 μM. The “Cytochrome P450 Inhibition, 2C19” value at Cytochrome P450 2C19 is recorded as more than 5.0 in 2C19 μM. Also, the “Cytochrome P450 Inhibition, 2C9” value at Cytochrome P450 2C9 is on record as more than 5.0 in 2C9 μM. Moreover, the “Cytochrome P450 Inhibition, 2D6” value on Cytochrome P450 2D6 is on record as more than 5.0 in 2D6 μM. Besides, the “Cytochrome P450 Inhibition, 3A4” value on Cytochrome P450 3A4 is recorded as more than 5.0 in 3A4 μM. Moreover, the microsomal CLint is more than 72 µL/min/mg in “Hepatic clearance, human” and more than 119 µL/min/mg in “Hepatic clearance, rat”.
Regarding `CCCNC(=O)c1ccc(-n2cccn2)s1` [Compound 9, N-propyl-5-(1H-pyrazol-1-yl)thiophene-2-carboxamide], the half-inhibitory concentration (IC50) is more than 250 µM at pfDHODH (Table 2b); more than 30 µM on pfDHODH (setting [1]); more than 30 µM at hsDHODH; more than 10 µM in the data set with P. falciparum 3D7; more than 10 µM in the data set with P. falciparum Dd2. In addition, the concentration for a half-maximal effect (EC50) with P. falciparum 3D7 and in the data set with P. falciparum Dd2 was more than 10 µM in each case. Moreover, the solubility in “Solubility measurement” was more than 30 µg/mL. This compound gave an apparent permeability (Papp) in “Permeability” of 22 ×10⁻⁶ cm/s. Also, in “Log D measurement”, the log distribution coefficient (logD) is 2.2. Moreover, on Cytochrome P450 1A2, the “Cytochrome P450 Inhibition, 1A2” value was more than 5.0 in 1A2 μM. The “Cytochrome P450 Inhibition, 2C19” value at Cytochrome P450 2C19 is given as more than 5.0 in 2C19 μM. Further, the “Cytochrome P450 Inhibition, 2C9” value at Cytochrome P450 2C9 was more than 5.0 in 2C9 μM. For the same compound, at Cytochrome P450 2D6, the “Cytochrome P450 Inhibition, 2D6” value is on record as more than 5.0 in 2D6 μM. Further, the “Cytochrome P450 Inhibition, 3A4” value at Cytochrome P450 3A4 is listed as more than 5.0 in 3A4 μM. Also, the microsomal CLint in the data set “Hepatic clearance, human” came to 59 µL/min/mg; in “Hepatic clearance, rat”, 104 µL/min/mg.
In the case of `CCCNC(=O)c1ccc(N2CCN(C)CC2)s1` [Compound 10, 5-(4-methylpiperazin-1-yl)-N-propylthiophene-2-carboxamide], the half-inhibitory concentration (IC50) at pfDHODH (Table 2b) was more than 250 µM; on pfDHODH (setting [1]), more than 30 µM; with P. falciparum 3D7, more than 10 µM; with P. falciparum Dd2, more than 10 µM. For the same compound, the EC50 in the data set with P. falciparum 3D7 and in the data set with P. falciparum Dd2 was more than 10 µM each time. Also, in the data set “Solubility measurement”, the solubility came to 24 µg/mL (≈ 89.8 µM). Moreover, in “Permeability”, the apparent permeability (Papp) was 11 ×10⁻⁶ cm/s. The logD in “Log D measurement” stood at 1.5. For the same compound, the “Cytochrome P450 Inhibition, 1A2” value on Cytochrome P450 1A2 is more than 5.0 in 1A2 μM. For the same compound, on Cytochrome P450 2C19, the “Cytochrome P450 Inhibition, 2C19” value is given as more than 5.0 in 2C19 μM. The “Cytochrome P450 Inhibition, 2C9” value on Cytochrome P450 2C9 is more than 5.0 in 2C9 μM. Moreover, the “Cytochrome P450 Inhibition, 2D6” value at Cytochrome P450 2D6 is listed as more than 5.0 in 2D6 μM. Moreover, the “Cytochrome P450 Inhibition, 3A4” value on Cytochrome P450 3A4 is on record as more than 5.0 in 3A4 μM. The microsomal CLint in the data set “Hepatic clearance, human” was 8 µL/min/mg; in the data set “Hepatic clearance, rat”, 16 µL/min/mg.
